# Test results taken from patent US5374621A (Regents of the University of California, priority 1991, dated 1994).
# Tests used:
# [1] = tested on: heat induced edema in rat paws; assay: Heat injury to the skin: paw edema after immersion in 58° C. water; assay type: in vivo; conditions: for ED50 (nmol/kg), inhibition of heat-induced edema / ED50 (μg/kg), inhibition of heat-induced edema: % increase in paw water content 30 minutes after heat injury, as % of saline control
# Protocol: Peptides, obtained from Peninsula Laboratories or Bachem Laboratories, were dissolved in sterile saline and injected intravenously 10 minutes before exposure to heat.
# After removal of the saline-treated animal's paw from 58° C. water, the paw's skin became red, followed by progressive swelling from an initial volume of about 1.5 ml to a net increase of 0.77 ml within 5 minutes.
# To compare the potency of the peptides, the following method was used. Thirty minutes after heat injury, rats were killed with an over-dose of concentrated sodium pentobarbital, and both paws cut off at the ankle joint and weighed. All paws were then dried in an oven at 80° C. for 24 hours and re-weighed to obtain % increase in water content as: [formula]
# The rat was euthanized 30 minutes later with concentrated pentobarbital and both paws removed by cutting at the ankle joint and weighed. The paws were then dried at 80° C. for 24 hours. Controls received only saline at 0.1 ml/kg i.v. The increase in the water content of the heated paw was calculated as: heated paw (wet wt.--dry wt.)--unheated paw (wet wt.--dry wt.).
# [2] = tested on: epinephrine-induced pulmonary edema; assay: Epinephrine-induced pulmonary edema; assay type: in vivo, rat; conditions: 10 nmol/kg i.v. 10 minutes before epinephrine bitartrate 10 μg/kg i.v.; lungs 30 minutes after Epi; Saline + Epi 6.2 ± 0.3
# Protocol: Male Sprague-Dawley rats weighing 260±9 g (Simonsen Labs, Gilroy, Calif.) were used in all experiments. […] This single dose of Epi is sufficient to produce a non-lethal pulmonary edema in the pentobarbital-anesthetized rat. Thirty minutes after Epi, animals were euthanized with concentrated pentobarbital and the lungs were removed. […] Lungs were blotted on paper towels and weighed (wet wt.), then placed in a 80° C. oven for 24 hour and re-weighed again (dry wt.). The value 1000 (wet wt.-dry wt.)/body wt. was termed the edema index. All data are presented as mean ± SEM. Statistical significance was assessed by analysis of variance (ANOVA) with the Studentized range-test.
# [3] = tested on: vascular leakage from brain cortex after freeze injury; assay: Cerebral cortex freeze injury: Monastral blue vascular leakage; assay type: in vivo, rat; conditions: 4 nmol/kg i.v. 10 minutes before freeze injury
# Protocol: (§1) Experiments were conducted on 260±6 (S.D.) male Sprague-Dawley rats from Simonsen Laboratories (Gilroy, Calif.). Animals were injected with sodium pentobarbital, 60 mg/kg i.p. Ten to 15 minutes later, after anesthesia was signaled by loss of the righting reflex and motor responses to tail pinch, Monastral blue B (used to estimate leakage of macromolecules from blood vessels), suspended in saline at 30 mg/ml (Sigma Co., St. Louis, Mo.), was injected 60 mg/kg i.v. at a rate of approximately 0.2 ml/100 g body weight/min into a branch of the femoral vein. Procedures for inducing vascular leakage began three minutes after Monastral blue infusion.
# This model of vasogenic edema in brain tissues was first described by Chan et al. (1983). Anesthetized rats were mounted on a David Kopf stereotaxic instrument and a 2 to 2.5 cm midline incision made in the shaved scalp. After parting the skin and connective tissue to expose the skull, a 60 mm^2 plate, connected to a brass cup filled with dry ice and acetone and maintained at -50° C., was applied to the skull for four minutes. One hour later, the animal was perfused through the aorta with saline, followed by 10% NBF, and then the brain was removed and stored in 10% NBF for at least two days before further analysis. Sections of membranes covering the cortex were also dissected from the underlying tissues and separately examined.
# To measure the area of dye distribution and the intensity of dye staining on the surfaces of the tissues, we used an image-processing system (JAVA, Jandel Video Analysis System, Corte Madera, Calif.) in which a video image, composed of pixels with different gray intensities, was subjected to numeric analysis. Samples of the abdominal muscle and brain were placed on a non-reflective coated glass board illuminated by six 60 watt fluorescent bulbs placed 1.65 m above the tissues and the images recorded under these constant conditions, without magnification, on video film. The areas of dye distribution were demarcated with a mouse-pointer device and the average intensity in the defined areas was obtained. […]
# [4] = tested on: blood pressure; assay: Blood pressure (mean arterial pressure) after i.v. injection; assay type: in vivo; conditions: 10 nmol/kg i.v.; FIG. 4
# Protocol: Blood pressure was monitored of animals to which 10 nmol/kg of different compounds were administered i.v. One administration was of saline as control. […] Blood pressure was monitored at intervals over a thirty minute period after injection.
# [5] = tested on: vascular leakage from abdominal muscle after celiotomy; assay: Skeletal muscle injury (celiotomy): Monastral blue vascular leakage; assay type: in vivo, rat; conditions: for Lesion Size (x104): area x intensity; for Area (mm^2) of dye staining: samples 30 minutes after celiotomy
# Protocol: as §1
# The abdomen was shaved and a 4 cm scalpel cut was made in the midline. After manually parting the skin, an incision of equal length was made in the rectus abdominus and the skin was then pushed together to cover the wound. Thirty minutes after celiotomy, the rat was euthanized with an i.v. overdose of pentobarbital and the skin and muscle surrounding the site of incision were removed and fixed in 10% neutral-buffered formalin (NBF) for at least 2 days before further analysis.
# To measure the area of dye distribution and the intensity of dye staining on the surfaces of the tissues, we used an image-processing system (JAVA, Jandel Video Analysis System, Corte Madera, Calif.) in which a video image, composed of pixels with different gray intensities, was subjected to numeric analysis. Samples of the abdominal muscle and brain were placed on a non-reflective coated glass board illuminated by six 60 watt fluorescent bulbs placed 1.65 m above the tissues and the images recorded under these constant conditions, without magnification, on video film. The areas of dye distribution were demarcated with a mouse-pointer device and the average intensity in the defined areas was obtained. To calibrate light intensity on the JAVA system, various concentrations of Monastral blue B (0.0625 to 16 mg/ml) were placed on white filter paper and the intensity scale set from 0 to 255 units. The relationship of light intensity, which is the degree of blueness in arbitrary units, to Monastral blue B concentrations (mg/ml) was: light intensity =124+116 log MB, an equation obtained by linear regression with a correlation coefficient of r= 0.98. The term "lesion size", applied to the area of staining multiplied by its light intensity, represents a two-dimensional measurement of vascular leakage. This assessment was considered adequate because the injuries were to the surfaces of the muscle and cortex and the lesions were not more than a few mm deep. To further characterize the sites of dye leakage from blood vessels, samples of muscle and cortex, cut to approximately 500 μm thickness, were mounted in glycerol gelatin for microscopic examination.
# Animals were randomly assigned to treatments using a paired control design with a minimum of 6 rats per group. Data were expressed as the mean ± S.E.M. and the ED50 and 95% confidence limits were estimated by the method of Litchfield and Wilcoxon (1949). The Student's test was used for comparison of groups.
# [6] = tested on: substance P; assay: Salivary secretion induced by substance P injections; assay type: in vivo; conditions: substance P 40 μg/kg s.c., rat
# Source text: Thus, a chemical (Such as illustrated by CP-96,345) that antagonizes the inflammatory mediator, substance P, is not sufficient to prevent edema after thermal injury.
compound,measurement,setting,value
xenopsin,"ED50 (nmol/kg), inhibition of heat-induced edema",[1]; i.v. 10 minutes before heat,0.9 nmol/kg
same,"ED50 (μg/kg), inhibition of heat-induced edema",[1]; i.v. 10 minutes before heat,0.88 µg/kg
N-acetyl-neurotensin (8-13) [AcNT8-13],"Edema Index, 1000 (wet wt.-dry wt.)/body wt.",[2],4.9 ± 0.2
same,"ED50 (nmol/kg), inhibition of heat-induced edema",[1]; i.v. 10 minutes before heat,2.1 nmol/kg
same,"ED50 (μg/kg), inhibition of heat-induced edema",[1]; i.v. 10 minutes before heat,1.8 µg/kg
same,Lesion Size (x103),"[3]; area x intensity, saline 5.7 ± 0.2",2.4 ± 0.3 x103
same,Area (mm^2) of dye staining,"[3]; brain removed sixty minutes later, saline 38 ± 2",21 ± 2 mm^2
same,Intensity of dye staining,[3]; saline 151 ± 4,119 ± 4
same,hypotensive effect (blood pressure over 30 minutes),[4],lacked hypotensive effect
same,Lesion Size (x104),"[5]; 4 nmol/kg i.v. 5 minutes after celiotomy, saline 10.4 ± 0.5",5.3 ± 0.4 x104
same,Intensity of dye staining,"[5]; 4 nmol/kg i.v. 5 minutes after celiotomy, saline 137 ± 31",108 ± 5
same,Area (mm^2) of dye staining,"[5]; 4 nmol/kg i.v. 5 minutes after celiotomy, saline 758 ± 39",493 ± 27 mm^2
same,Lesion Size (x104),"[5]; 4 nmol/kg i.v. 10 minutes before celiotomy, saline 12.7 ± 0.4",5.0 ± 0.2 x104
same,Intensity of dye staining,"[5]; 4 nmol/kg i.v. 10 minutes before celiotomy, saline 149 ± 2",126 ± 2
same,Area (mm^2) of dye staining,"[5]; 4 nmol/kg i.v. 10 minutes before celiotomy, saline 852 ± 27",399 ± 18 mm^2
Kinetensin,"ED20, inhibition of heat-induced edema","[1]; i.v. 10 minutes before heat, dose range 200-800 nmol/kg",420 nmol/kg
neurotensin (8-13) [NT (8-13)],"Edema Index, 1000 (wet wt.-dry wt.)/body wt.",[2],4.7 ± 0.2
same,swelling response (paw volume change),"[1]; FIG. 1, different doses before 58° C. water, paw volume up to 30 minutes",dose-dependent suppression
same,"ED50 (nmol/kg), inhibition of heat-induced edema",[1]; i.v. 10 minutes before heat,1.9 nmol/kg
same,"ED50 (μg/kg), inhibition of heat-induced edema",[1]; i.v. 10 minutes before heat,1.6 µg/kg
same,hypotensive effect (blood pressure over 30 minutes),[4],lacked hypotensive effect
"COc1ccccc1CN[C@H]1C2CCN(CC2)[C@H]1C(c1ccccc1)c1ccccc1 [CP-96,345, reference compound]",Increase in Water Content of Heated Paw,"[1]; 4 mg/kg i.v. 10 minutes before 58° C. water for one minute, 30 minutes later, saline 1117 ± 33, not significantly different",1057 ± 24 mg
same,salivary secretion induced by substance P,[6],prevent salivary secretion
"neuromedin N (IPYIL; Neuromedin N; UniProt P30990 144-148, looked up) [peptide of the neurotensin family]","ED50 (nmol/kg), inhibition of heat-induced edema",[1]; i.v. 10 minutes before heat,10.0 nmol/kg
same,"ED50 (μg/kg), inhibition of heat-induced edema",[1]; i.v. 10 minutes before heat,7.5 µg/kg
LANT-6,swelling after heat injury,"[1]; 0.5 mg/kg i.v., control 69±2%, N=6 pairs, P<0.001",2±1%
